Laboratory results: patent US12612424B2, “HPK1 inhibitors and uses thereof” (Regor Pharmaceuticals, Inc., priority 2019, dated 2026)
Read-outs that look alike come from different tables or passages of the source.

Experiments:
HPK1 = HPK1 (Homo sapiens, UniProt Q92918); test: HPK1 biochemical assay (ADP-GLO Kinase Assay)
Outline: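 HPK1 (0.6 ng/μL final) activity was followed with MBP substrate and 10 μM ATP in Tris pH 7.5/MgCl2/BSA/DTT buffer, measured by ADP-Glo luminescence. Compounds were tested as 3-fold dilutions from 10 μM. IC50 came from a three-parameter logistic fit, with inhibition normalised to high/low controls.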

JAK3 = biological target: T1, JAK3 (Homo sapiens, UniProt P52333); test: JAK3 biochemical assay (ADP-GLO Kinase Assay); settings: for JAKs/HPK1 IC50 Ratio, B* / JAKs/HPK1 IC50 Ratio, N*: ratio of JAK3 IC50 to HPK1 IC50; for JAKs/HPK1 IC50 Ratio, B*: first testing facility; for JAKs/HPK1 IC50 Ratio, N*: second testing facility
T1 construct: purchased Thermo fisher PV3855
T1 sequence (P52333 781-1124 limits assumed): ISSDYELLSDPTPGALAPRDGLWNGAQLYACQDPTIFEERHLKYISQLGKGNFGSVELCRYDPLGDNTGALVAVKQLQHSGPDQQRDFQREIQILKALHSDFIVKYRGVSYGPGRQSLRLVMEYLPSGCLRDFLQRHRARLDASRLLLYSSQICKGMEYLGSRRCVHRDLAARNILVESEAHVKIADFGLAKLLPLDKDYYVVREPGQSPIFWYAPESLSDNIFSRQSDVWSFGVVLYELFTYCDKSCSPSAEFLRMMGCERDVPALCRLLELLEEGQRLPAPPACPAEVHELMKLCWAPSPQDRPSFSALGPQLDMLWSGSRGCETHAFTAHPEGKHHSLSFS
Outline: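 Human JAK3 (0.78 ng) with 0.2 μg/μL Poly(E4Y1) and 4 μM ATP in 40 mM Tris pH 7.5, 20 mM MgCl2, 0.1 mg/ml BSA, 50 μM DTT, 1% DMSO; 60 min at 25 °C. ADP formed read by ADP-Glo luminescence. 10-dose 3-fold series from 10 μM; IC50 by three-parameter logistic fit.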

[1] = B*: testing performed in a first testing facility, read-out: HPK1 IC50 (nM) Relative, B*
[2] = B*: testing performed in a first testing facility, read-out: JAK3 IC50 (nM) Relative, B*
[3] = N*: testing performed in a second testing facility, read-out: HPK1 IC50 (nM) Relative, N*
[4] = N*: testing performed in a second testing facility, read-out: JAK3 IC50 (nM) Relative, N*

Sequence of HPK1 (Q92918 whole entry): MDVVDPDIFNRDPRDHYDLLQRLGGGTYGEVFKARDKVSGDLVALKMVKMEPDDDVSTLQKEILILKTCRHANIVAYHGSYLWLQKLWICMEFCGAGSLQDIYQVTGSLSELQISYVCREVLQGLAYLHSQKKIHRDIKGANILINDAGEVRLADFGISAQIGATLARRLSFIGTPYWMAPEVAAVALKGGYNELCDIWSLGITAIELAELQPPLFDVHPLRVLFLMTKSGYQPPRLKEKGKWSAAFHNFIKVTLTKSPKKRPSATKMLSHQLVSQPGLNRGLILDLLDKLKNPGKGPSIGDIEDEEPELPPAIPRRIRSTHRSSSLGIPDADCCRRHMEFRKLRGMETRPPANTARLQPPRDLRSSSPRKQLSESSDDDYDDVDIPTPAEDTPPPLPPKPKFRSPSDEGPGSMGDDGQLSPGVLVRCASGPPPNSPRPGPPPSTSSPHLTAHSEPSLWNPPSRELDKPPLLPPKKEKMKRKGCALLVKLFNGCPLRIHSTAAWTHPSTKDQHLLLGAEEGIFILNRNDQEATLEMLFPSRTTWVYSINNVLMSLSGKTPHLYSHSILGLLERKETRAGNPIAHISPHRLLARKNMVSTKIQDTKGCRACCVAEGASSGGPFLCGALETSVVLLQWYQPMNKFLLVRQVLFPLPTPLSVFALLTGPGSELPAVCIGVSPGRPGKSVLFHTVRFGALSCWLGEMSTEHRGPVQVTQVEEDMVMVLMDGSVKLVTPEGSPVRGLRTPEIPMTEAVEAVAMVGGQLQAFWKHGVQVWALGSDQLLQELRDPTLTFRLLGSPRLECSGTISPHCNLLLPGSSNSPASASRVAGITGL

IC50 (HPK1; [1]) | IC50 (JAK3; [2]) | JAKs/HPK1 IC50 Ratio, B* (JAK3) | IC50 (HPK1; [3]) | IC50 (JAK3; [4]) | JAKs/HPK1 IC50 Ratio, N* (JAK3) | SMILES
≤ 100 nM | > 1000 nM | 413 |  |  |  | COc1cc2c(cc1Nc1ncc(Cl)c(N3CCc4cc(C(F)F)ccc43)n1)CN(C)CC2 [Example 90, N-(5-chloro-4-(5-(difluoromethyl)indolin-1-yl)pyrimidin-2-yl)-6-methoxy-2-methyl-1,2,3,4-tetrahydroisoquinolin-7-amine]
≤ 100 nM | ≤ 100 nM | 6 |  |  |  | COc1cc2c(cc1Nc1ncc(Cl)c(N3CC(C)(C(=O)O)c4cc(F)ccc43)n1)CN(C)CC2 (stereo not drawn) [Example 125]
≤ 100 nM | > 1000 nM | 476 |  |  |  | COC(=O)CC1(C)CN(c2nc(Nc3cc4c(cc3OC)CCN(C)C4)ncc2Cl)c2ccccc21 (stereo not drawn) [Example 145]
≤ 100 nM | 500 to 1000 nM | 62 |  |  |  | COc1cc2c(cc1Nc1ncc(Cl)c(N3CCc4cc(Cl)ccc43)n1)CN(C)CC2 [Example 13, N-(5-chloro-4-(5-chloroindolin-1-yl)pyrimidin-2-yl)-6-methoxy-2-methyl-1,2,3,4-tetrahydroisoquinolin-7-amine]
≤ 100 nM | 100 to 500 nM | 382 |  |  |  | COc1cc2c(cc1Nc1ncc(Cl)c(-n3cc(CC(=O)O)c4cc(F)ccc43)n1)CN(C)CC2 [Example 138]
≤ 100 nM | 100 to 500 nM | 280 |  |  |  | COc1cc2c(cc1Nc1ncc(Cl)c(N3CC(CC(=O)O)c4ccccc43)n1)CN(C)CC2 (stereo not drawn) [Example 128]
≤ 100 nM | ≤ 100 nM | 6 | ≤ 100 nM | ≤ 100 nM | 11 | CN1CCc2ccc(Nc3ncc(Cl)c(N4CCc5ccccc54)n3)cc2C1 [Example 14, N-(5-Chloro-4-(indolin-1-yl)pyrimidin-2-yl)-2-methyl-1,2,3,4-tetrahydroisoquinolin-7-amine]
≤ 100 nM | 500 to 1000 nM | 540 |  |  |  | CONC(=O)C1CN(c2nc(Nc3cc4c(cc3OC)CCN(C)C4)ncc2Cl)c2ccccc21 (stereo not drawn) [Example 103, 1-(5-Chloro-2-((6-methoxy-2-methyl-1,2,3,4-tetrahydroisoquinolin-7-yl)amino)pyrimidin-4-yl)-N-methoxyindoline-3-carboxamide]
≤ 100 nM | 100 to 500 nM |  |  |  |  | COc1cc2c(cc1Nc1ncc(Cl)c(N3CC4(CC4)c4ccccc43)n1)CN(C)CC2 [Example 84, N-(5-chloro-4-(spiro[cyclopropane-1,3′-indolin]-1′-yl)pyrimidin-2-yl)-6-methoxy-2-methyl-1,2,3,4-tetrahydroisoquinolin-7-amine]
≤ 100 nM | > 1000 nM | >446 |  |  |  | COc1cc2c(cc1Nc1ncc(Cl)c(N3CCc4ccc(Cl)cc43)n1)CN(C)CC2 [Example 18, N-(5-chloro-4-(6-chloroindolin-1-yl)pyrimidin-2-yl)-6-methoxy-2-methyl-1,2,3,4-tetrahydroisoquinolin-7-amine]
≤ 100 nM |  |  | ≤ 100 nM | > 1000 nM | 642 | COc1cc2c(cc1Nc1ncc(Cl)c(-n3ccc4ccccc43)n1)CN(C)CC2 [Example 2, N-(5-chloro-4-(1H-indol-1-yl)pyrimidin-2-yl)-6-methoxy-2-methyl-1,2,3,4-tetrahydroisoquinolin-7-amine]
≤ 100 nM | ≤ 100 nM | 9 |  |  |  | COc1cc2c(cc1Nc1ncc(Cl)c(N3CC(C)(C(=O)O)c4ccc(F)cc43)n1)CN(C)CC2 (stereo not drawn) [Example 126]
≤ 100 nM | ≤ 100 nM | 71 |  |  |  | COc1cc2c(cc1Nc1ncc(Cl)c(N3CC(C)(CC(=O)O)c4ccccc43)n1)CN(C)C2 (stereo not drawn) [Example 159, 2-(1-(5-Chloro-2-((6-methoxy-2-methylisoindolin-5-yl)amino)pyrimidin-4-yl)-3-methylindolin-3-yl)acetic acid]
≤ 100 nM |  |  | ≤ 100 nM | > 1000 nM | >2457 | COc1cc2c(cc1Nc1ncc(Cl)c(-n3cc(C(=O)N(C)C)c4ccccc43)n1)CN(C)CC2 [Example 8]
≤ 100 nM | > 1000 nM | 886 |  |  |  | COc1cc2c(cc1Nc1ncc(Cl)c(N3CC(C(=O)O)c4c(OC)cccc43)n1)CN(C)CC2 (stereo not drawn) [Example 108, 1-(5-Chloro-2-((6-methoxy-2-methyl-1,2,3,4-tetrahydroisoquinolin-7-yl)amino)pyrimidin-4-yl)-4-methoxyindoline-3-carboxylic acid]
≤ 100 nM | 500 to 1000 nM | 640 |  |  |  | COc1cc2c(cc1Nc1ncc(Cl)c(-n3cc(CC(=O)O)c4ccccc43)n1)CN(C)CC2 [Example 129]
≤ 100 nM | > 1000 nM | 870 |  |  |  | COc1cc2c(cc1Nc1ncc(Cl)c(-n3cc(CC(N)=O)c4ccccc43)n1)CN(C)CC2 [Example 133]

IC50 (HPK1; [1]) | IC50 (JAK3; [2]) | JAKs/HPK1 IC50 Ratio, B* (JAK3) | IC50 (HPK1; [3]) | IC50 (JAK3; [4]) | JAKs/HPK1 IC50 Ratio, N* (JAK3) | SMILES
≤ 100 nM |  |  | ≤ 100 nM | > 1000 nM | 571 | COc1cc2c(cc1Nc1ncc(Cl)c(-n3cnc4ccccc43)n1)CN(C)CC2 [Example 9, N-(4-(1H-benzo[d]imidazol-1-yl)-5-chloropyrimidin-2-yl)-6-methoxy-2-methyl-1,2,3,4-tetrahydroisoquinolin-7-amine]
≤ 100 nM | > 1000 nM | 456 |  |  |  | COc1cc2c(cc1Nc1nccc(N3CC(C(=O)O)c4ccccc43)n1)CN(C)CC2 (stereo not drawn) [Example 163, 1-(2-((6-Methoxy-2-methyl-1,2,3,4-tetrahydroisoquinolin-7-yl)amino)pyrimidin-4-yl)indoline-3-carboxylic acid]
≤ 100 nM | > 1000 nM |  |  |  |  | COc1cc2c(cc1Nc1ncc(Cl)c(N3CC(P(C)(C)=O)c4ccccc43)n1)CN(C)CC2 (stereo not drawn) [Example 88]
≤ 100 nM | 100 to 500 nM | 200 |  |  |  | COc1cc2c(cc1Nc1ncc(Cl)c(N3CC(c4nn[nH]n4)c4ccccc43)n1)CN(C)CC2 (stereo not drawn) [Example 100, N-(4-(3-(2H-tetrazol-5-yl)indolin-1-yl)-5-chloropyrimidin-2-yl)-6-methoxy-2-methyl-1,2,3,4-tetrahydroisoquinolin-7-amine]
≤ 100 nM | 500 to 1000 nM | 510 |  |  |  | COc1cc2c(cc1Nc1ncc(Cl)c(-c3cn(CC(=O)O)c4ccccc34)n1)CN(C)CC2 [Example 161]
≤ 100 nM | > 1000 nM | 232 |  |  |  | COc1cc2c(cc1Nc1ncc(Cl)c(-n3cc(S(N)(=O)=O)c4ccccc43)n1)CN(C)CC2 [Example 83, 1-(5-Chloro-2-((6-methoxy-2-methyl-1,2,3,4-tetrahydroisoquinolin-7-yl)amino)pyrimidin-4-yl)-1H-indole-3-sulfonamide]
≤ 100 nM | > 1000 nM | 1275 |  |  |  | COC(=O)C1CN(c2nc(Nc3cc4c(cc3OC)CCN(C)C4)ncc2Cl)c2ccccc21 (stereo not drawn) [Example 115, Methyl 1-(5-chloro-2-((6-methoxy-2-methyl-1,2,3,4-tetrahydroisoquinolin-7-yl)amino)pyrimidin-4-yl)indoline-3-carboxylate]
≤ 100 nM | 100 to 500 nM |  |  |  |  | COc1cc2c(cc1Nc1ncc(Cl)c(N3CC(CO)c4ccccc43)n1)CN(C)CC2 (stereo not drawn) [Example 87]
≤ 100 nM | 500 to 1000 nM | 269 |  |  |  | COc1cc2c(cc1Nc1ncc(F)c(N3CC(C(=O)O)c4ccccc43)n1)CN(C)CC2 (stereo not drawn) [Example 109, 1-(5-Fluoro-2-((6-methoxy-2-methyl-1,2,3,4-tetrahydroisoquinolin-7-yl)amino)pyrimidin-4-yl)indoline-3-carboxylic acid]
≤ 100 nM | 500 to 1000 nM | 243 |  |  |  | COc1cc2c(cc1Nc1ncc(Cl)c(-n3cc(CC#N)c4ccccc43)n1)CN(C)CC2 [Example 134]
≤ 100 nM | > 1000 nM | >944 |  |  |  | CCOC(=O)CC1(C)CN(c2nc(Nc3cc4c(cc3OC)CCN(C)C4)ncc2Cl)c2ccccc21 (stereo not drawn) [Example 149]
≤ 100 nM | 500 to 1000 nM | 438 |  |  |  | CNC(=O)Cc1cn(-c2nc(Nc3cc4c(cc3OC)CCN(C)C4)ncc2Cl)c2ccccc12 [Example 136]
≤ 100 nM | > 1000 nM | 80 |  |  |  | COc1cc2c(cc1Nc1ncc(Cl)c(N3C[C@](C)(C(=O)O)c4ccccc43)n1)CN(C)CC2 (single isomer, unassigned) [Example 118]
≤ 100 nM | > 1000 nM | 358 |  |  |  | COc1cc2c(cc1Nc1ncc(Cl)c(N3CC(C)(CC(=O)O)c4ccc(F)cc43)n1)CN(C)CC2 (single isomer, unassigned) [Example 153]
≤ 100 nM | > 1000 nM | 1482 |  |  |  | COc1cc2c(cc1Nc1ncc(Cl)c(N3CC(C(=O)O)C4(CCCC4)C3)n1)CN(C)CC2 (stereo not drawn) [Example 169, 2-(5-Chloro-2-((6-methoxy-2-methyl-1,2,3,4-tetrahydroisoquinolin-7-yl)amino)pyrimidin-4-yl)-2-azaspiro[4.4]nonane-4-carboxylic acid]
≤ 100 nM | > 1000 nM | 890 |  |  |  | COC(=O)C1(C)CN(c2nc(Nc3cc4c(cc3OC)CCN(C)C4)ncc2Cl)c2ccccc21 (stereo not drawn) [Example 116]
